Laboratory results as given in ChEMBL document CHEMBL1148870, “Novel inhibitors of VEGF receptors-1 and -2 based on azole-5-carboxamide templates” (Bioorg Med Chem Lett, 2007).

What was measured:
[1] = target: Fibroblast growth factor receptor 1 (Homo sapiens) (UniProt P11362); assay: Inhibition of FGFR1 at 10 uM; design: scale not given: the % may be the effect or the level left
[2] = target: Vascular endothelial growth factor receptor 1 (Homo sapiens, UniProt P17948); assay: Inhibition of VEGFR1 assessed as inhibition of phosphorylation in presence of 2 uM ATP by HTRF assay; type: functional
[3] = target: T1, Vascular endothelial growth factor receptor 2 (Homo sapiens, UniProt P35968); assay: Inhibition of VEGFR2 assessed as inhibition of phosphorylation in presence of 2 uM ATP by HTRF assay; type: functional
Homo sapiens [4] = species on record: Homo sapiens; assay: Inhibition of InR at 10 uM; design: scale not given: the % may be the effect or the level left
[5] = target: Receptor tyrosine-protein kinase erbB-2 (Homo sapiens) (UniProt P04626); assay: Inhibition of ErbB2/Her2 at 10 uM; design: scale not given: the % may be the effect or the level left
[6] = target: Epidermal growth factor receptor (Homo sapiens) (UniProt P00533); assay: Inhibition of ErbB1 at 10 uM; design: scale not given: the % may be the effect or the level left
[7] = target: Receptor-type tyrosine-protein kinase FLT3 (Homo sapiens) (UniProt P36888); assay: Inhibition of Flt3 at 10 uM; design: scale not given: the % may be the effect or the level left
[8] = target: Cyclin-dependent kinase 2 (Homo sapiens) (UniProt P24941); assay: Inhibition of Cdk2 at 10 uM; design: scale not given: the % may be the effect or the level left
Homo sapiens [9] = species on record: Homo sapiens; assay: Inhibition of Cdk1 at 10 uM; design: scale not given: the % may be the effect or the level left
[10] = target: Glycogen synthase kinase-3 beta (Homo sapiens) (UniProt P49841); assay: Inhibition of GSK3-beta at 10 uM; design: scale not given: the % may be the effect or the level left
[11] = target: T1, Vascular endothelial growth factor receptor 2; assay: Inhibition of VEGFR2 assessed as inhibition of phosphorylation in human 293 cells by cell-based ELISA; type: functional, HEK293
Homo sapiens [12] = species on record: Homo sapiens; assay: Inhibition of bcr-Abl at 10 uM; design: scale not given: the % may be the effect or the level left
[13] = target: RAF proto-oncogene serine/threonine-protein kinase (Homo sapiens) (UniProt P04049); assay: Inhibition of Raf1 at 10 uM; design: scale not given: the % may be the effect or the level left
[14] = target: RAC-alpha serine/threonine-protein kinase (Homo sapiens) (UniProt P31749); assay: Inhibition of PKB/Akt at 10 uM; design: scale not given: the % may be the effect or the level left
Homo sapiens [15] = species on record: Homo sapiens; assay: Inhibition of PKA at 10 uM; design: scale not given: the % may be the effect or the level left
[16] = target: Vascular endothelial growth factor receptor 3 (Homo sapiens) (UniProt P35916); assay: Inhibition of Flt4 at 10 uM; design: scale not given: the % may be the effect or the level left
[17] = target: Hepatocyte growth factor receptor (Homo sapiens) (UniProt P08581); assay: Inhibition of cMet at 10 uM; design: scale not given: the % may be the effect or the level left
[18] = target: Insulin-like growth factor 1 receptor (Homo sapiens) (UniProt P08069); assay: Inhibition of IGF1R at 10 uM; design: scale not given: the % may be the effect or the level left

Vascular endothelial growth factor receptor 1, sequence (P17948 whole entry): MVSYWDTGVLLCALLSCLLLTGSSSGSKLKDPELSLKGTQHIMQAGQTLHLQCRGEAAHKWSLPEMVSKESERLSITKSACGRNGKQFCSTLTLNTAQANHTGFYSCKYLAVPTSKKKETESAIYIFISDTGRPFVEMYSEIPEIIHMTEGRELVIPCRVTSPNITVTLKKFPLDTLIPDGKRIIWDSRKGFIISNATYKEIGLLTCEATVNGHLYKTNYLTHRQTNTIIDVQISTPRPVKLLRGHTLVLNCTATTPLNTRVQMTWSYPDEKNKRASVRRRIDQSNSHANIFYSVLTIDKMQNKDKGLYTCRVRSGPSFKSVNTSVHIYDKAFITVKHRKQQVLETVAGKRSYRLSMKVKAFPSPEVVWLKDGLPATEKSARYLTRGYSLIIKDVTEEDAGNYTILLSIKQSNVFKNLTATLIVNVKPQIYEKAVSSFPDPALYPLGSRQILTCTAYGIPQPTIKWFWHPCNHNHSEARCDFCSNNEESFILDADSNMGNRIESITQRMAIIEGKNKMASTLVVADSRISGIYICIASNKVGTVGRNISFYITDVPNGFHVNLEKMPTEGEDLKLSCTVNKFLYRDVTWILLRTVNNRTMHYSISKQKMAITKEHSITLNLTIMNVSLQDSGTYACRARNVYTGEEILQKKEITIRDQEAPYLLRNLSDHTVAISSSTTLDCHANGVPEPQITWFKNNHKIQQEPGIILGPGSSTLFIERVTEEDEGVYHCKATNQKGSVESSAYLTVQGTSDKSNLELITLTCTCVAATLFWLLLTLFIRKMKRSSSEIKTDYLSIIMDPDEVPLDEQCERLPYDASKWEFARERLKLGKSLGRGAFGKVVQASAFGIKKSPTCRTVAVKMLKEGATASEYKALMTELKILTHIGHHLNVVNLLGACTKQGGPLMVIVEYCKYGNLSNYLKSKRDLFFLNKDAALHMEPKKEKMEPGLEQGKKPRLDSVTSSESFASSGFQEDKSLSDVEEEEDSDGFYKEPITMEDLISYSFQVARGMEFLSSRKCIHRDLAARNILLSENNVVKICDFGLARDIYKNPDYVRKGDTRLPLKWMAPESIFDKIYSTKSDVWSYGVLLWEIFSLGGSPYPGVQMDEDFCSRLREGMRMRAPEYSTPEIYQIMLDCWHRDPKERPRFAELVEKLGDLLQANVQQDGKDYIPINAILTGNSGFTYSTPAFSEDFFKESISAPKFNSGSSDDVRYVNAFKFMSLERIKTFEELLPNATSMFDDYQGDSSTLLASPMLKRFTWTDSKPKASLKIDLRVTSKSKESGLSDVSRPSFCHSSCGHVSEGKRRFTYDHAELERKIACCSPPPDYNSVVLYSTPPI
Vascular endothelial growth factor receptor 3 (Homo sapiens), sequence (P35916 whole entry): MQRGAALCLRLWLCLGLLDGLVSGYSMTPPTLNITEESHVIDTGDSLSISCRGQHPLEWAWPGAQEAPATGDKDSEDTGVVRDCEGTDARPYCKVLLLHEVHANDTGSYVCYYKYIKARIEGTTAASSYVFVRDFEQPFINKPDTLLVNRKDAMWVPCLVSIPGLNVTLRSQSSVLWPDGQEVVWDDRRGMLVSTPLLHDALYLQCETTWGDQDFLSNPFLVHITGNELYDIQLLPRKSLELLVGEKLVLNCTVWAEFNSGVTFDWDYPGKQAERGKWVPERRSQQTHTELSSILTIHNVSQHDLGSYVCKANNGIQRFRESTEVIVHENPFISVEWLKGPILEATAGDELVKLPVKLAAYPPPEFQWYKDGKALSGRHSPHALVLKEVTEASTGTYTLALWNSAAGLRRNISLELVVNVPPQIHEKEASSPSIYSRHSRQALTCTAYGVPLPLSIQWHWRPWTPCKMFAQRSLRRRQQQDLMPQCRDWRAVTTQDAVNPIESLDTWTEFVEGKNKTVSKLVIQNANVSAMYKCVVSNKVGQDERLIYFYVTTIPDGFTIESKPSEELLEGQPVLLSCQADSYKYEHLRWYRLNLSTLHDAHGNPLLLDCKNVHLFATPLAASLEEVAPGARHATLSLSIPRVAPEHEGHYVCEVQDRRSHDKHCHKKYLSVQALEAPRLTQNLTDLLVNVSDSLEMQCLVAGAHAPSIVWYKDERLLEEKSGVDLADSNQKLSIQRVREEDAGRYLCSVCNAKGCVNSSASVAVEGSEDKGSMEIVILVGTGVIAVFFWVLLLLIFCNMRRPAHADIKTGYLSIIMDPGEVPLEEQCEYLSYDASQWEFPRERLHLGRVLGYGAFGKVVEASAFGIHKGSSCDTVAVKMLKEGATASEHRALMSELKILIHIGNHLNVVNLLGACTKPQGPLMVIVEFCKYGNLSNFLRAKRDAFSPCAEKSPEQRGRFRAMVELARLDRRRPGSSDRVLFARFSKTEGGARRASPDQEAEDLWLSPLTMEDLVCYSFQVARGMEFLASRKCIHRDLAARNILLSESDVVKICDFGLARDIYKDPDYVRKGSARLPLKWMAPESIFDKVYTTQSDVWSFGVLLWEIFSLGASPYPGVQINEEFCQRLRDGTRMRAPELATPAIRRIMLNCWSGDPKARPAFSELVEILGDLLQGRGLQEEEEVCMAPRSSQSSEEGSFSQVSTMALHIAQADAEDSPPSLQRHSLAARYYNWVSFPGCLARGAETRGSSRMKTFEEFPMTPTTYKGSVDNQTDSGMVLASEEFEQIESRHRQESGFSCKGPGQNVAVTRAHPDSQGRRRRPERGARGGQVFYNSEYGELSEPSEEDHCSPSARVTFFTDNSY
Receptor tyrosine-protein kinase erbB-2 (Homo sapiens), sequence (P04626 whole entry): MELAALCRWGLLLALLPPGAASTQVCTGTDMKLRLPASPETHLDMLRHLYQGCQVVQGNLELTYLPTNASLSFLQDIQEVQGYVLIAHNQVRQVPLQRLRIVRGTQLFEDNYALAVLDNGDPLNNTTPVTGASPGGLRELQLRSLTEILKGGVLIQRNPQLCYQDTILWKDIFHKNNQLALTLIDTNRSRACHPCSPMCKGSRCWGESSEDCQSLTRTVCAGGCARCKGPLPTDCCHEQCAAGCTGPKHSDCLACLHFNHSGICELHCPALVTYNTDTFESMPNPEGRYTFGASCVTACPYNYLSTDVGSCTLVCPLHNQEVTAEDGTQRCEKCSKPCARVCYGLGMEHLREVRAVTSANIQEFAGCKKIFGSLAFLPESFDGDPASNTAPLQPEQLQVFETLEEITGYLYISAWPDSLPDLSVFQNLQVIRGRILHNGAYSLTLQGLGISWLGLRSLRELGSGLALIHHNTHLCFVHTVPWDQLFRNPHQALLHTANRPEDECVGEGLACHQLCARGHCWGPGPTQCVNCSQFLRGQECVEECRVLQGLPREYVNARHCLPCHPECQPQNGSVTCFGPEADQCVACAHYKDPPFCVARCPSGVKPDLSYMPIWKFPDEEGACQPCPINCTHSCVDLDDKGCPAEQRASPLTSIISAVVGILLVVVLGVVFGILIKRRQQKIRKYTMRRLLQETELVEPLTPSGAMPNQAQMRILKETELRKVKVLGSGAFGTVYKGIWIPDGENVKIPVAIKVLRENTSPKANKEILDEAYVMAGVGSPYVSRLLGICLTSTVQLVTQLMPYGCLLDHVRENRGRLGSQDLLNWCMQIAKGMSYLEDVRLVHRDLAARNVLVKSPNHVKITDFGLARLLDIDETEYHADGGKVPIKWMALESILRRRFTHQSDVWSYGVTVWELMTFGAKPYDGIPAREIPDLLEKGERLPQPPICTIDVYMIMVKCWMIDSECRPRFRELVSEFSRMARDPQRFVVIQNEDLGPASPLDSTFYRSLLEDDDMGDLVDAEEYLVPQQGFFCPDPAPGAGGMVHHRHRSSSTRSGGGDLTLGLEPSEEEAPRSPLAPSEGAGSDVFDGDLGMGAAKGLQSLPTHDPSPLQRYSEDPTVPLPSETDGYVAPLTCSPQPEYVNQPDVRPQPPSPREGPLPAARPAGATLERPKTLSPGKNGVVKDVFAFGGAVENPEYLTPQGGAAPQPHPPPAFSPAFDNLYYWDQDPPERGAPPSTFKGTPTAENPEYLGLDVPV
Glycogen synthase kinase-3 beta (Homo sapiens), sequence (P49841 whole entry, looked up): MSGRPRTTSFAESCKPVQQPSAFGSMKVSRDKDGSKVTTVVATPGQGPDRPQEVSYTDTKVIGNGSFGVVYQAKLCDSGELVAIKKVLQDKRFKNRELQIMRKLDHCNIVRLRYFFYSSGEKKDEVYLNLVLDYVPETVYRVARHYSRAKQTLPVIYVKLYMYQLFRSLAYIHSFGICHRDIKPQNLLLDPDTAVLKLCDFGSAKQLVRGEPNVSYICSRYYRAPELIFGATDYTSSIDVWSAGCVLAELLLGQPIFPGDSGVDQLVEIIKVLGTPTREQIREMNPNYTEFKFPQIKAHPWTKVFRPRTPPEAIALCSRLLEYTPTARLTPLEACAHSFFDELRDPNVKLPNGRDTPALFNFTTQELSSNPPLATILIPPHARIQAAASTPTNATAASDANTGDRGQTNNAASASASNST
RAF proto-oncogene serine/threonine-protein kinase (Homo sapiens), sequence (P04049 whole entry): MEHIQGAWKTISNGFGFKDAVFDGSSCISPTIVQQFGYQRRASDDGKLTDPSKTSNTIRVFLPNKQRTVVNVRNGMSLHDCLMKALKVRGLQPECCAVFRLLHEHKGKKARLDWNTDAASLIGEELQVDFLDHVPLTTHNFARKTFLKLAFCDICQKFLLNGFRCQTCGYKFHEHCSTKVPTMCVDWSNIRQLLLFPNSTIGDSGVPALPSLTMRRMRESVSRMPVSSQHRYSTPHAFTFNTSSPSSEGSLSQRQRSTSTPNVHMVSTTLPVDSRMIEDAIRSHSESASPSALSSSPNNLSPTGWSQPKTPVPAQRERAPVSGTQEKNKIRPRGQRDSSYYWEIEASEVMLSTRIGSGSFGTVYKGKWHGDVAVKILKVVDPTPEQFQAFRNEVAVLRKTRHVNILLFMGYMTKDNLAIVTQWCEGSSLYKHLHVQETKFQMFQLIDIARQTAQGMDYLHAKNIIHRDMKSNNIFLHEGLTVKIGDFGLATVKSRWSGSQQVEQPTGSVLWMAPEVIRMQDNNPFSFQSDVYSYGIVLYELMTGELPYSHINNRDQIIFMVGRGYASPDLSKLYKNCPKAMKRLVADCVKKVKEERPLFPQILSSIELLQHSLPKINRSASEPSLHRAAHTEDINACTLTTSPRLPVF

| Compound | Activity [1] [%] | IC50 [2] [nM] | IC50 [3] [nM] | Activity (Homo sapiens [4]) [%] | Activity [5] [%] | Activity [6] [%] | Activity [7] [%] | Activity [8] [%] | Activity (Homo sapiens [9]) [%] | Activity [10] [%] | IC50 [11] [nM] | Activity (Homo sapiens [12]) [%] | Activity [13] [%] | Activity [14] [%] | Activity (Homo sapiens [15]) [%] | Activity [16] [%] | Activity [17] [%] | Activity [18] [%] |
| --- | --- | --- | --- | --- | --- | --- | --- | --- | --- | --- | --- | --- | --- | --- | --- | --- | --- | --- |
| O=C(Nc1ccc(OC(F)(F)F)cc1)c1nnnn1CCc1ccncc1 | > 30 | 3880 | 2650 | > 30 | > 30 | < 30 | > 30 | > 30 | > 30 | > 30 | 2970 | > 30 | > 30 | > 30 | > 30 | > 30 | > 30 | > 30 |
| O=C(Nc1ccc(Cl)cc1)c1nc2ccccc2n1CCc1ccncc1 | > 30 | > 10000 | > 10000 | > 30 | > 30 | < 30 | > 30 | > 30 | > 30 | > 30 | > 10000 | > 30 | > 30 | > 30 | > 30 | > 30 | > 30 | > 30 |
| Cc1nn(CCc2ccncc2)c(C(=O)Nc2ccc(OC(F)(F)F)cc2)c1C | > 30 | > 10000 | > 10000 | > 30 | > 30 | < 30 | > 30 | > 30 | > 30 | > 30 | > 10000 | > 30 | > 30 | > 30 | > 30 | > 30 | > 30 | > 30 |
| O=C(Nc1ccc(C(F)(F)F)cc1)c1nccn1CCc1ccncc1 | > 30 | 790 | 470 | > 30 | > 30 | < 30 | > 30 | > 30 | > 30 | > 30 | 1660 | > 30 | > 30 | > 30 | > 30 | > 30 | > 30 | > 30 |
| O=C(Nc1ccc(C(F)(F)F)cc1)c1nnnn1CCc1ccncc1 | > 30 | 1080 | 850 | > 30 | > 30 | < 30 | > 30 | > 30 | > 30 | > 30 | 2960 | > 30 | > 30 | > 30 | > 30 | > 30 | > 30 | > 30 |
| O=C(Nc1ccc2cn[nH]c2c1)c1ccnn1CCc1ccncc1 | > 30 | > 10000 | > 10000 | > 30 | > 30 | < 30 | > 30 | > 30 | > 30 | > 30 | > 10000 | > 30 | > 30 | > 30 | > 30 | > 30 | > 30 | > 30 |
| O=C(Nc1ccc(Cl)cc1)c1ccnn1CCc1noc2ccccc12 | > 30 | > 10000 | > 10000 | > 30 | > 30 | < 30 | > 30 | > 30 | > 30 | > 30 | > 10000 | > 30 | > 30 | > 30 | > 30 | > 30 | > 30 | > 30 |
| Cc1nn(CCc2ccncc2)c(C(=O)Nc2ccc(Cl)cc2)c1C | > 30 | > 10000 | > 10000 | > 30 | > 30 | < 30 | > 30 | > 30 | > 30 | > 30 | > 10000 | > 30 | > 30 | > 30 | > 30 | > 30 | > 30 | > 30 |
| COc1ccc(CCn2nccc2C(=O)Nc2ccc(Cl)cc2)cc1OC | > 30 | > 10000 | > 10000 | > 30 | > 30 | < 30 | > 30 | > 30 | > 30 | > 30 | > 10000 | > 30 | > 30 | > 30 | > 30 | > 30 | > 30 | > 30 |
| O=C(Nc1ccc(OC(F)(F)F)cc1)c1nc2ccccc2n1CCc1ccncc1 | > 30 | > 10000 | > 10000 | > 30 | > 30 | < 30 | > 30 | > 30 | > 30 | > 30 | > 10000 | > 30 | > 30 | > 30 | > 30 | > 30 | > 30 | > 30 |
| Cc1cc(C(=O)Nc2ccc(Cl)cc2)n(CCc2ccncc2)n1 | > 30 | 1220 | 780 | > 30 | > 30 | < 30 | > 30 | > 30 | > 30 | > 30 | 2540 | > 30 | > 30 | > 30 | > 30 | > 30 | > 30 | > 30 |
| O=C(Nc1ccc(C(F)(F)F)c(Cl)c1)c1nc2ccccc2n1CCc1ccncc1 | > 30 | > 10000 | > 10000 | > 30 | > 30 | < 30 | > 30 | > 30 | > 30 | > 30 | > 10000 | > 30 | > 30 | > 30 | > 30 | > 30 | > 30 | > 30 |
| O=C(Nc1cnc2ccccc2c1)c1ccnn1CCc1ccncc1 | > 30 | 380 | 180 | > 30 | > 30 | < 30 | > 30 | > 30 | > 30 | > 30 | 1220 | > 30 | > 30 | > 30 | > 30 | > 30 | > 30 | > 30 |
| O=C(Nc1ccc(Oc2ccccc2)cc1)c1ccnn1CCc1ccncc1 | > 30 | 5250 | 3220 | > 30 | > 30 | < 30 | > 30 | > 30 | > 30 | > 30 | > 10000 | > 30 | > 30 | > 30 | > 30 | > 30 | > 30 | > 30 |
| O=C(Nc1ccc(-c2ccccc2)cc1)c1ccnn1CCc1ccncc1 | > 30 | 2250 | 950 | > 30 | > 30 | < 30 | > 30 | > 30 | > 30 | > 30 | 1560 | > 30 | > 30 | > 30 | > 30 | > 30 | > 30 | > 30 |
| Cc1cc(C(=O)Nc2ccc(OC(F)(F)F)cc2)n(CCc2ccncc2)n1 | > 30 | 2250 | 1190 | > 30 | > 30 | < 30 | > 30 | > 30 | > 30 | > 30 | 1340 | > 30 | > 30 | > 30 | > 30 | > 30 | > 30 | > 30 |
| CN(C(=O)c1ccnn1CCc1ccncc1)c1ccc(Cl)cc1 | – | > 10000 | > 10000 | – | – | – | – | – | – | – | – | – | – | – | – | – | – | – |
